Data taken from the supplement of paper PMC11208160.

Test: recombinant barcode read abundance after kanamycin selection (control-corrected) (log10(CPM+1)); higher = more efficient recombination; sequences stand for … in AGTGCAGAGAAAATCGGCCAGTTTTCTCTGCCTGCAGTCCGCATGCCGT…AGATTTATGCAGCGGACTGCCTTTCTCCCAAAGTGATAAACCGGACAGTATCATGGACCGGTTTTCCCGGTAATCCGTATTTGCAAGGTTGGTTTCACT; site = the 11-nt target
Procedure, shortened: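 Oligos holding a promoter, target, barcode and the J23119-driven first 104 bases of the bridge RNA were Gibson-cloned into a vector that supplied the other 73 bp plus a T7-inducible recombinase. This library was co-electroporated with a donor plasmid into E. coli. Two replicates went on chloramphenicol/ampicillin LB agar (control) and two on chloramphenicol/ampicillin/kanamycin with 0.1 mM IPTG. Recombination efficiency is read from averaged, control-corrected barcode counts per million at recombinant junctions, reported as log10(CPM+1).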
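Note: IS621 recombinase and bridge RNA in Escherichia coli cells.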

| Sequence | recombinant barcode read abundance (log10) |
| --- | --- |
| CAACTAGCTTGGGTTCTAACCTGTTGCAT (site TTGTACACTGA) | 0.028 |
| CAAGCACCTTGGGTTCTAACCTGTTGCTT (site CAAACACCTAA) | 0.121 |
| CAAGCACCTTGGGTTCTAACCTGTTGCTT (site CAACCACCTAA) | 0.0852 |
| CAAGCACCTTGGGTTCTAACCTGTTGCTT (site CAAGCACCTAA) | 0.187 |
| CAAGCACCTTGGGTTCTAACCTGTTGCTT (site CAATCACCTAA) | 0.338 |
| CAAGGTCCTTGGGTTCTAACCTGTTGCGG (site CAAGGTCCTCC) | 2.68 |
| CAAGGTCCTTGGGTTCTAACCTGTTGCGG (site GTTACCTCTAG) | 0.194 |
| CAAGTGGCTTGGGTTCTAACCTGTTGCCT (site CAAGTAGCTAG) | 0.417 |
| CAAGTGGCTTGGGTTCTAACCTGTTGCCT (site CAAGTCGCTAG) | 0.0501 |
| CAAGTGGCTTGGGTTCTAACCTGTTGCCT (site CAAGTGGCTAG) | 1.21 |
| CAAGTGGCTTGGGTTCTAACCTGTTGCCT (site CAAGTTGCTAG) | 0.721 |
| CAATATCCTTGGGTTCTAACCTGTTGCCT (site CAATATCCTAG) | 1.09 |
| CAATATCCTTGGGTTCTAACCTGTTGCCT (site CACTATCCTAG) | 0.0197 |
| CAATATCCTTGGGTTCTAACCTGTTGCCT (site CAGTATCCTAG) | 0.143 |
| CAATATCCTTGGGTTCTAACCTGTTGCCT (site CATTATCCTAG) | 0.0807 |
| CAATCTACTTGGGTTCTAACCTGTTGCCT (site CAACCTACTAG) | 0.391 |
| CAATCTACTTGGGTTCTAACCTGTTGCCT (site CAATCTACTAG) | 0.0558 |
| CAATTACCTTGGGTTCTAACCTGTTGCTT (site CAATTACCTAA) | 0.682 |
| CAATTACCTTGGGTTCTAACCTGTTGCTT (site GCGCCCTCTCG) | 0.0793 |
| CACAAACCTTGGGTTCTAACCTGTTGCAG (site AGATGTGCTAG) | 0.054 |
| CACAAACCTTGGGTTCTAACCTGTTGCAG (site CACAAACCTCT) | 1.17 |
| CACAAGTCTTGGGTTCTAACCTGTTGCAG (site CACAAGTCTCG) | 0.519 |

| Sequence | recombinant barcode read abundance (log10) |
| --- | --- |
| CACAAGTCTTGGGTTCTAACCTGTTGCAG (site CACAAGTCTCT) | 2 |
| CACAAGTCTTGGGTTCTAACCTGTTGCCG (site CACAAGTCTCG) | 0.657 |
| CACAAGTCTTGGGTTCTAACCTGTTGCCG (site CACAAGTCTCT) | 0.182 |
| CACACACCTTGGGTTCTAACCTGTTGCGT (site CACAATCCTAC) | 0.189 |
| CACACACCTTGGGTTCTAACCTGTTGCGT (site CACACACCTAC) | 2.86 |
| CACACGGCTTGGGTTCTAACCTGTTGCCT (site CACACCGCTAG) | 0.246 |
| CACACGGCTTGGGTTCTAACCTGTTGCCT (site CACACGGCTAG) | 0.518 |
| CACACTACTTGGGTTCTAACCTGTTGCTT (site CACACTACTAA) | 0.0581 |
| CACACTACTTGGGTTCTAACCTGTTGCTT (site TATACTACTAA) | 0.101 |
| CACAGCACTTGGGTTCTAACCTGTTGCCT (site CACAACACTAG) | 0.065 |
| CACAGCACTTGGGTTCTAACCTGTTGCCT (site CACACCACTAG) | 0.00856 |
| CACAGCACTTGGGTTCTAACCTGTTGCCT (site CACAGCACTAG) | 1.44 |
| CACAGCACTTGGGTTCTAACCTGTTGCCT (site CACATCACTAG) | 0.0547 |
| CACAGGCCTTGGGTTCTAACCTGTTGCAG (site CACAGGCCTCT) | 1.98 |
| CACAGGCCTTGGGTTCTAACCTGTTGCAG (site TGTTCAGCTAG) | 0.0715 |
| CACATACCTTGGGTTCTAACCTGTTGCAT (site CACATACCTAT) | 1.87 |
| CACATACCTTGGGTTCTAACCTGTTGCAT (site CACCTTCCTAT) | 0.0683 |
| CACATCACTTGGGTTCTAACCTGTTGCCT (site CACAACACTAG) | 0.122 |
| CACATCACTTGGGTTCTAACCTGTTGCCT (site CACACCACTAG) | 0.225 |
| CACATCACTTGGGTTCTAACCTGTTGCCT (site CACAGCACTAG) | 0.0683 |
| CACATCACTTGGGTTCTAACCTGTTGCCT (site CACATCACTAG) | 0.704 |
